Measurements published in patent US12091387B2, “Quinoline cGAS antagonist compounds” (IMMUNESENSOR THERAPEUTICS, INC., priority 2022, dated 2024).

Tests used:
[1] = system: cGAS activity in reporter THP1 cell line; assay: Cellular assay to measure cGAS activity (ISRE-Gaussia luciferase reporter THP1 cells, ISD transfection); type: cell-based; details: Homo sapiens, THP-1, 2 μg/mL ISD transfection, 16 hours, luciferase luminescence
Method: Cellular assay to measure cGAS activity: Reporter THP1 cell line harboring a gene encoding Gaussia Luciferase under the control of 5 tandem repeats of interferon-stimulated response elements (ISRE) fused to an ISG54 minimal promoter was used to test inhibition of cGAS activity by synthetic compounds in human cells. These cells were plated on 96-well plates at 0.3×10^6/well and incubated with serial dilutions of compounds or DMSO for 5 min, followed by transfection of 2 μg/mL of ISD (Interferon Stimulatory DNA, a 45 bp DNA oligo) or mock transfected using lipofectamine 2000 (Life Technology) method, according to manufacturer's instructions. 16 hours later, 15 μL of the media from each well was transferred to a new plate, 50 μL of solution containing 50 mM Hepes-NaOH, pH 6.5, 50 mM NaCl, 10 mM EDTA, 1 μM of coeleanterazine is added to each well and luminescence is measured immediately. Fold increase in luminescence compared to mock transfection was plotted against concentrations of each compound, and IC50 is calculated using Graphpad. To evaluate the specificity of a compound, the same procedure is performed except that cells are transfected with 2 μg/mL […] or infected with Sendai Virus (SeV) at 50 Unit/mL, which are known to activate the RIG-I-MAVS pathway. A specific inhibitory compound should inhibit interferon induction by DNA but have minimal effect on poly(I:C) or Sendai virus induced interferon reporter gene expression.
The letter codes for cGAS IC50 include: A (<2 μM); B (2-10 μM); C (>10 μM).

[2] = target: T1, recombinant human cGAS (aa147-522) (Homo sapiens, UniProt Q8N884); assay: In vitro inhibition assay of cGAS activity (KinaseGlo, ATP consumption); type: biochemical; details: Herring testis DNA, 6.6 μM ATP, 0.1 mM GTP, 37° C. 20 minutes
T1 construct: recombinant human cGAS (aa147-522); His6-SUMO (N, cleaved yes); made in house; host or cells: E. coli BL21/pLys
T1 sequence (Q8N884 147-522): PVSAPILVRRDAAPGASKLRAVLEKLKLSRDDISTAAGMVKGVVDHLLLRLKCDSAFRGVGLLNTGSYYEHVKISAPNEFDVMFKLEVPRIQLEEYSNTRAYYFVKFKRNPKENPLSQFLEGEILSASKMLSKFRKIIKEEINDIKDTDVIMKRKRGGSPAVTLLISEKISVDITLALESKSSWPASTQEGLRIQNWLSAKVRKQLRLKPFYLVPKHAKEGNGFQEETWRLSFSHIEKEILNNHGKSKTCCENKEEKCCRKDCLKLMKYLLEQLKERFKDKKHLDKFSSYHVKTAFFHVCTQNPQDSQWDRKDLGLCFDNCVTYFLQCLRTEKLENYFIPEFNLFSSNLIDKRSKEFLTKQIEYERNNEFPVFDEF
Method: Expression and Purification of Recombinant cGAS Protein: cDNA encoding full-length or amino acids 147-520 of human cGAS was inserted into a modified pET28a vector containing an in-frame His6-SUMO tag. The E. coli strain BL21/pLys harboring the plasmid was induced with 0.5 mM IPTG at 18° C. overnight. His6-SUMO tag was removed by a SUMO protease digestion following purification of the His6-SUMO-cGAS as described previously (Sun et al, 2013, Science 339, 786).
In vitro inhibition assay of cGAS activity: A 60 μL mixture containing 20 mM Tris-Cl, pH 7.5, 5 mM MgCl2, 0.2 mg/mL BSA, 0.01 mg/mL Herring testis DNA, 6.6 μM ATP, 0.1 mM GTP, 1.5 μg/mL of recombinant human cGAS (aa147-522) and serial dilutions of a test compound in DMSO is added to a 96-well plate and incubated at 37° C. for 20 minutes. At the end of reaction, 40 μL of KinaseGlo Max (Promega) is added and chemiluminescence was measured with a luminometer. Inhibitory effect of a compound is evaluated by plotting percentage of ATP consumption against logarithm of compound concentrations. IC50 value is calculated using GraphPad Prism 8 (GraphPad Software, Inc.).
The letter codes for cGAS IC50 include: A (<2 μM); B (2-30 μM); C (>30 μM).

Row | Compound | IC50 [1] | IC50 [2]
1 | O=C(O)CCOC[C@@H]1CCCN1c1cc(-n2cncn2)c2cc(Cl)c(Br)cc2n1 [I-893] | < 2 µM | < 2 µM
2 | Cc1c(Br)ccc2c(-n3cncn3)cc(N3CCC[C@H]3COCCC(=O)O)nc12 [I-894] | < 2 µM | < 2 µM
3 | O=C(O)CCOC[C@@H]1CCCN1c1cc(-n2cncn2)c2cc(Br)c(Cl)c(Cl)c2n1 [I-895] | < 2 µM | < 2 µM
4 | O=C(O)CCOC[C@@H]1CC2(CC2)CN1c1cc(-n2cncn2)c2cc(Cl)c(Br)cc2n1 [I-896] | < 2 µM | < 2 µM
5 | O=C(O)CCOC[C@@H]1CC2(CC2)CN1c1cc(-n2cncn2)c2cc(Br)c(Cl)c(Cl)c2n1 [I-897] | < 2 µM | < 2 µM
6 | O=C(O)CCOC[C@@H]1CC2(CC2)CN1c1cc(-n2cncn2)c2ccc(Cl)c(Cl)c2n1 [I-898] | < 2 µM | < 2 µM
7 | O=C(O)CCOC[C@@H]1CCCN1c1cc(-c2ncn[nH]2)c2ccc(Br)cc2n1 [I-901, (S)-3-((1-(7-bromo-4-(4H-1,2,4-triazol-3-yl)quinolin-2-yl)pyrrolidin-2-yl)methoxy)propanoic acid] | > 10 µM | 2 to 30 µM
8 | O=C(O)CCOC[C@H]1CCCN1c1cc(-n2cncn2)c2cc(Cl)c(Br)cc2n1 [I-924] | > 10 µM | 2 to 30 µM
9 | O=C(O)CCOC[C@H]1CCCN1c1cc(-n2cncn2)c2cc(Br)c(Cl)c(Cl)c2n1 [I-925] | < 2 µM | < 2 µM
10 | O=C(O)CCOC[C@H]1CC2(CC2)CN1c1cc(-n2cncn2)c2cc(Br)c(Cl)c(Cl)c2n1 [I-926] | < 2 µM | < 2 µM
11 | O=C(O)CCOC[C@@H]1C[C@@H]2C[C@@H]2N1c1cc(-n2cncn2)c2cc(Cl)c(Br)cc2n1 [I-927] | < 2 µM | < 2 µM
12 | C[C@H]1C[C@@H](COCCC(=O)O)N(c2cc(-n3cncn3)c3cc(Cl)c(Br)cc3n2)C1 [I-928] | < 2 µM | < 2 µM
13 | O=C(O)CCOC[C@@H]1C[C@H](C(F)(F)F)CN1c1cc(-n2cncn2)c2cc(Cl)c(Br)cc2n1 [I-929] | < 2 µM | < 2 µM
14 | O=C(O)CCOC[C@@H]1C[C@@H]2C[C@@H]2N1c1cc(-n2cncn2)c2cc(Br)c(Cl)c(Cl)c2n1 [I-930] | < 2 µM | < 2 µM
15 | O=C(O)CCOC[C@@H]1CCCN1c1cc(-n2cncn2)c2cc(Cl)c(Cl)cc2n1 [I-931] | < 2 µM | < 2 µM
16 | COC(=O)[C@@H]1[C@@H](O)CCN1c1cc(-n2cncn2)c2cc(Br)c(Cl)c(Cl)c2n1 [I-933] | < 2 µM | < 2 µM
17 | O=C(O)[C@@H]1[C@@H](O)CCN1c1cc(-n2cncn2)c2cc(Cl)c(Br)cc2n1 [I-934] | > 10 µM | < 2 µM
18 | O=C(O)CCOC[C@@H]1CCN(c2cc(-n3cncn3)c3cc(Cl)c(Br)cc3n2)C1 [I-935] | < 2 µM | < 2 µM
19 | COC(=O)[C@@H]1[C@@H](O)CCN1c1cc(-n2cncn2)c2cc(Cl)c(Br)cc2n1 [I-936] | < 2 µM | < 2 µM
20 | O=C(O)CCOC[C@@H]1CCN(c2cc(-n3cncn3)c3cc(Br)c(Cl)c(Cl)c3n2)C1 [I-937] | < 2 µM | < 2 µM
21 | CCN(CCOCCC(=O)O)c1cc(-n2cncn2)c2cc(Br)c(Cl)c(Cl)c2n1 [I-938] | < 2 µM | < 2 µM

Next, values leading:

Row | IC50 [1] | IC50 [2] | Compound
22 | < 2 µM | < 2 µM | O=C(O)CCOC[C@@H]1CCCN1c1cc(-n2cncn2)c2ccc(Cl)c(Cl)c2n1 [I-892]
23 | < 2 µM | < 2 µM | O=C(O)CCOC[C@@H]1CCCN1c1cc(-c2cnn[nH]2)c2ccc(Cl)c(Cl)c2n1 [I-899, (S)-3-((1-(7,8-dichloro-4-(1H-1,2,3-triazol-4-yl)quinolin-2-yl)pyrrolidin-2-yl)methoxy)propanoic acid]
24 | < 2 µM | < 2 µM | O=C(O)CCOC[C@@H]1CCCN1c1cc(-n2ccnn2)c2ccc(Cl)c(Cl)c2n1 [I-900, (S)-3-((1-(7,8-dichloro-4-(1H-1,2,3-triazol-1-yl)quinolin-2-yl)pyrrolidin-2-yl)methoxy)propanoic acid]
25 | 2 to 10 µM | < 2 µM | O=C(O)CCOC[C@@H]1CCCN1c1cc(-c2cnoc2)c2ccc(Cl)c(Cl)c2n1 [I-902]
26 | 2 to 10 µM | < 2 µM | O=C(O)CCOC[C@@H]1CCCN1c1cc(-c2cnco2)c2ccc(Br)cc2n1 [I-903, (S)-3-((1-(7-bromo-4-(oxazol-5-yl)quinolin-2-yl)pyrrolidin-2-yl)methoxy)propanoic acid]
27 | > 10 µM | > 30 µM | O=C(O)CCOC[C@@H]1CCCN1c1cc(-c2cocn2)c2ccc(Cl)c(Cl)c2n1 [I-904]
28 | > 10 µM | > 30 µM | O=C(O)CCOC[C@@H]1CCCN1c1cc(-c2ccsc2)c2ccc(Cl)c(Cl)c2n1 [I-905]
29 | < 2 µM | < 2 µM | O=C(O)CCOC[C@@H]1CCCN1c1cc(-c2cnsc2)c2ccc(Cl)c(Cl)c2n1 [I-906]
30 | < 2 µM | < 2 µM | O=C(O)CCOC[C@@H]1CCCN1c1cc(-c2cncs2)c2ccc(Cl)c(Cl)c2n1 [I-907]
31 | > 10 µM | > 30 µM | O=C(O)CCOC[C@@H]1CCCN1c1cc(-c2cscn2)c2ccc(Cl)c(Cl)c2n1 [I-908]
32 | > 10 µM | > 30 µM | O=C(O)CCOC[C@@H]1CCCN1c1cc(-c2cccc(CO)c2)c2ccc(Cl)c(Cl)c2n1 [I-909]
33 | > 10 µM | > 30 µM | O=C(O)CCOC[C@@H]1CCCN1c1cc(-c2cccc(O)c2)c2ccc(Cl)c(Cl)c2n1 [I-910]
34 | > 10 µM | > 30 µM | COc1ccc(-c2cc(N3CCC[C@H]3COCCC(=O)O)nc3c(Cl)c(Cl)ccc23)cc1 [I-911]
35 | > 10 µM | > 30 µM | COc1cccc(-c2cc(N3CCC[C@H]3COCCC(=O)O)nc3c(Cl)c(Cl)ccc23)c1 [I-912]
36 | > 10 µM | > 30 µM | O=C(O)CCOC[C@@H]1CCCN1c1cc(-c2ccc(F)cc2)c2ccc(Cl)c(Cl)c2n1 [I-913]
37 | > 10 µM | 2 to 30 µM | O=C(O)CCOC[C@@H]1CCCN1c1cc(-c2cccc(F)c2)c2ccc(Cl)c(Cl)c2n1 [I-914]
38 | > 10 µM | > 30 µM | O=C(O)CCOC[C@@H]1CCCN1c1cc(-c2cccnc2)c2ccc(Cl)c(Cl)c2n1 [I-915]
39 | > 10 µM | > 30 µM | O=C(O)CCOC[C@@H]1CCCN1c1cc(-c2ccncc2)c2ccc(Cl)c(Cl)c2n1 [I-916]
40 | > 10 µM | < 2 µM | O=C(O)CCOC[C@@H]1CCCN1c1cc(-c2cncnc2)c2ccc(Cl)c(Cl)c2n1 [I-917]
41 | > 10 µM | > 30 µM | O=C(O)CCOC[C@@H]1CCCN1c1cc(-c2ccnnc2)c2ccc(Cl)c(Cl)c2n1 [I-918]
42 | > 10 µM | > 30 µM | O=C(O)CCOC[C@@H]1CCCN1c1cc(N2CCOCC2)c2ccc(Cl)c(Cl)c2n1 [I-919]
43 | > 10 µM | > 30 µM | O=C(O)CCOC[C@@H]1CCCN1c1cc(N2CCNCC2)c2ccc(Cl)c(Cl)c2n1 [I-920]
44 | > 10 µM | > 30 µM | CN1CCN(c2cc(N3CCC[C@H]3COCCC(=O)O)nc3c(Cl)c(Cl)ccc23)CC1 [I-921]
45 | > 10 µM | > 30 µM | O=C(O)CCOC[C@@H]1CCCN1c1cc(C2=CCNC2)c2ccc(Cl)c(Cl)c2n1 [I-922]
46 | > 10 µM | 2 to 30 µM | O=C(O)CCOC[C@@H]1CCCN1c1cc(C2=CNCC2)c2ccc(Cl)c(Cl)c2n1 [I-923]
47 | < 2 µM | < 2 µM | O=C(O)CCOC[C@@H]1CCCN1c1cc(-n2cncn2)c2c(Cl)c(Cl)ccc2n1 [I-932]
